The values below are quoted from earlier work in US20090252647A1, “COMPOSITIONS AND METHODS FOR APPLYING ANTIMICROBIALS TO SUBSTRATES” (Crosstex International, Inc., priority 2008, published 2009).

Molecules are shown by their SMILES.

As to `CCCCCCCCCCCCCCCCCC[N+](C)(C)CCC[Si](O)(O)O.[Cl-]` [3-(trihydroxysilyl)propyldimethyloctadecyl ammonium chloride], the solubility in water entry was “approximately 15 % w/v”.
